Test results: patent publication US5248677A, “Biogentic amine uptake inhibitors” (priority 1992, dated 1993)
Where a name gives a salt, the structure may show the parent alone.

What was measured:
Type in all cases: biochemical, rat (Male Sprague-Dawley)
norepinephrine uptake = experiment: NE (norepinephrine) uptake inhibition, synaptosomal preparation (hypothalamus); settings: rat hypothalamus synaptosomes, 0.1 μM tritiated amine, 37° C., 4 minutes
Procedure: (§1) For the purpose of identifying compounds as biogenic amine uptake inhibitors capable of interacting with the uptake carrier, ligand-carrier binding assays were carried out as an initial sceen.
(§2) Male Sprague-Dawley derived rats, weighing about 180-250 g each (purchased from Sasco Animal Laboratories, Oregon, Wis.) were sacrificed by decapitation. The brains were immediately removed, placed on a chilled glass plate and dissected according to a modification of the method of Glowinski and Iversen (J. Glowinski and L. L. Iversen, J Neurochem, 1966, 13: 655-669). First, the rhombencephalon was separated by a transverse section and discarded. The rest of the brain was divided into two portions by making another transverse section at the level of the optic chiasma. The hypothalamus, which was used for norepinephrine uptake studies, was removed from the posterior part by using the anterior commissure as the horizontal reference point and a line between the posterior hypothalamus and mammillary bodies as the caudal limit. The striatum, which was used for dopamine uptake studies, was also dissected from the posterior portion using the external wall of the lateral ventricle as the internal limit and the corpus collosum as the external limit. The frontal parts of the striatum were removed from the anterior portion of the cerebrum and combined with the striatal tissue from the posterior segment. The cortex, which was used for serotonin uptake studies, was composed of the rest of the anterior portion of the cerebrum and the cortical surfaces removed from the posterior segment. The hypothalamus and the striatum each weighed about 100 mg or slightly less, whereas the cortex weighed up to 800 mg. The tissues were placed in a cold Potter-Elvehjem glass homogenizer with 5 (cortex) or 10 (hypothalamus) or 20 (striatum) volumes of ice-cold 0.32M sucrose, pH 7, and homogenized by hand. The homogenate was centrifuged (on a Multifuge®, American Scientific Products) at 2500 rpm for 10 minutes in a refrigerated room (~4° C.). The supernatant fraction containing the synaptosomes was decanted, mixed thoroughly and kept on crushed ice for use in the uptake studies.
(§3) Uptake studies were conducted according to the method of Snyder and Coyle (S. H. Snyder and J. T. Coyle, J Pharmacol Exp Ther, 1969, 165: 78-86) with minor modifications. Usually a 0.1 mL aliquot of the synaptosomal preparation was incubated in a mixture of 0.75 mL of modified Krebs-Ringerbuffer, 0.05 mL of the drug being tested, and 0.1 mL of a 1 μM solution of the labeled (tritiated) amine (final concentration 0.1 μM), for a total volume of 1 mL. The modified Krebs-Ringer bicarbonate buffer used in these studies contained 118 mM sodium chloride, 4 mM potassium chloride, 1.3 mM calcium chloride, 1.12 mM potassium dihydrogen phosphate, 1.2 mM magnesium sulfate and 24 mM sodium bicarbonate, with the addition of 5 mM glucose, 0.15 mM disodium EDTA, 12.5 μM nialamide and 1 mM ascorbic acid. Uptake was initiated by the addition of the tritiated amine and the mixture was incubated at 37° C. in a Dubnoff Metabolic Shaking Incubator for 4 minutes. A preincubation period was not included since it had been reported that results were similar with and without preincubation of the synaptosomal preparation (G. Vosmer, et al. Biochem Pharmacol, 1980, 24: 2557-2562). Control incubations without the test drug were conducted at 37° C. to determine total uptake and at 0° C. (in a crushed ice bath) to correct for the diffusion of the tritiated amine into the synaptosomes and/or binding.
(§4) Filtration was used to terminate uptake and collect the synaptosomes (C. A. Csernansky, et al. J Pharmacol Methods, 1985, 13: 187-191). In the filtration technique, the incubation mixture was diluted with ice-cold 0.9% aqueous sodium chloride solution and filtered through GF/B glass microfiber filters (Whatman) under reduced pressure. […]

dopamine uptake = experiment: DA (dopamine) uptake inhibition, synaptosomal preparation (striatum); settings: rat striatum synaptosomes, 0.1 μM tritiated amine, 37° C., 4 minutes
Procedure: as §1, §2, §3, §4

5-HT (serotonin) uptake = 5-HT (serotonin) uptake inhibition, synaptosomal preparation (cortex); settings: 5-hydroxytryptamine, rat cortex synaptosomes, 0.1 μM tritiated amine, 37° C., 4 minutes
Procedure: as §1, §2, §3, §4

SMILES	IC50 (norepinephrine uptake) [nM]	IC50 (dopamine uptake) [nM]	IC50 (5-HT (serotonin) uptake) [nM]	IC50 (norepinephrine uptake; hydrochloride) [nM]	IC50 (dopamine uptake; hydrochloride) [nM]	IC50 (5-HT (serotonin) uptake; hydrochloride) [nM]
CCN1CC2c3cccc(OC)c3CCC2C1Cc1ccccc1 (stereo not drawn) [Example 23, cis-2-Ethyl-2,3,3a,4,5,9 b-hexahydro-6-methoxy-3-phenylmethyl-1H-benz[e]isoindole methanesulfonic acid salt]	28	141	1430	–	–	–
COc1ccc2c(c1)CCC1C(Cc3ccccc3)NCC21 (stereo not drawn) [Example 6, trans-2,3,3a,4,5,9b-Hexahydro-7-methoxy-3-phenylmethyl-1H-benz[e]isoindole methanesulfonic acid salt]	543	10100	6510	–	–	–
Fc1ccc(CC2NCC3c4ccccc4CCC23)cc1 (stereo not drawn) [Example 17, 3-(4-Fluorophenyl)methyl-2,3,3a,4,5,9b-hexahydro-1 H-benz[e]isoindole methanesulfonic acid salt]	665	9200	11000	–	–	–
Cc1cccc(CC2C3CCc4ccccc4C3CN2C)c1 (stereo not drawn) [Example 12, cis-2,3,3a,4,5,9b-Hexahydro-2-methyl-3-(3-methylphenyl)methyl-1H-benz[e]isoindole hydrochloride]	37	571	1780	–	–	–
Fc1cccc(CC2NCC3c4ccccc4CCC23)c1 (stereo not drawn) [Example 15, cis-3-(3-Fluorophenyl)methyl-2,3,3a,4,5,9b-hexahydro-1H-benz[e]isoindole hydrochloride]	347	7700	15000	–	–	–
CCN1CC2c3ccccc3CCC2C1Cc1cccc(C)c1 (stereo not drawn) [Example 13, cis-2 -Ethyl-2,3,3a,4,5,9b-hexahydro-3-(3-methylphenyl)methyl-1H-benz[e]isoindole hydrochloride]	18	148	507	–	–	–
COc1cccc2c1CCC1CCC(Cc3ccccc3)N(C)CC21 (single isomer, unassigned) [Example 76A, 8-Methoxy-2-methyl-1,3,4,5,5a,6,7,11b-octahydro-3-phenylmethyl-2H-naphth[1,2-c]azepine hydrochloride]	–	–	–	3.5	529	386
COc1ccc2c(c1)CC[C@H]1[C@@H]2CN(C)[C@@H]1Cc1ccccc1 (relative stereo) [Example 8, cis-anti-2,3,3a,4,5,9b-Hexahydro-7-methoxy-2-methyl-3-phenylmethyl-1H-benz[e]isoindole methanesulfonic acid salt]	120	4700	2700	–	–	–
COc1ccc2c(c1OC)CCC1C2CN(C)C1Cc1ccccc1 (stereo not drawn) [Example 32, cis-6,7-Dimethoxy-2,3,3a,4,5,9b-hexahydro-2-methyl-3-phenylmethyl-1H-benz[e]isoindole hydrochloride]	113	169	12700	–	–	–
CN1CC2c3ccccc3CCC2CCC1Cc1ccccc1 (single isomer, unassigned) [Example 75B, cis-2-Methyl-1,3,4,5,5a,6,7,11b-octahydro-3-phenylmethyl-2H-naphth[1,2-c]azepine hydrochloride]	–	–	–	513	2810	4130
CC1C[C@H]2c3ccccc3CC[C@H]2CN1Cc1ccccc1 (relative stereo) [Example 71A, cis-2-Methyl-1,2,3,4,4a,5,6,10b-octahydro-3-phenylmethyl-benz[f]isoquinoline]	9.8	450	2120	–	–	–
COc1cccc2c1CCC1C2CN(C)C1Cc1ccccc1 (stereo not drawn) [Example 22, cis-2,3,3a,4,5,9 b-Hexahydro-6-methoxy-2-methyl-3-phenylmethyl-1H-benz[e]isoindole methanesulfonic acid salt]	60	368	3440	–	–	–
Cc1cccc(CC2NCC3c4ccccc4CCC23)c1 (stereo not drawn) [Example 11, cis-2,3,3a,4,5,9b-Hexahydro-3-(3-methylphenyl)methyl-1H-benz[e]isoindole hydrochloride]	238	5140	827	–	–	–
COc1ccc2c(c1)CCC1C2CN(C)C1Cc1ccccc1 (stereo not drawn) [Example 7, trans-2,3,3a,4,5,9b-Hexahydro-7-methoxy-2-methyl-3-phenylmethyl-1H-benz[e]isoindole]	322	13400	12200	–	–	–
CN1CC2c3ccccc3CCC2C1Cc1cccc(Cl)c1 (single isomer, unassigned) [Example 47, 3-(3-Chlorophenyl)methyl-2,3,3a,4,5,9b-hexahydro-2-methyl-1H-benz[e]isoindole hydrochloride]	41	225	1260	–	–	–
CN1CC2c3ccccc3CCC2CCC1Cc1ccccc1 (single isomer, unassigned) [Example 75A, cis-2-Methyl-1,3,4,5,5a,6,7,11b-octahydro-3-phenylmethyl-2H-naphth[1,2-c]azepine hydrochloride]	–	–	–	30	444	227
COc1ccc(C)c2c1CCC1C2CN(C)C1Cc1ccccc1 (stereo not drawn) [Example 38, cis-2,9-Dimethyl-2,3,3a,4,5,9b-hexahydro-6-methoxy-3-phenylmethyl-1H-benz[e]isoindole hydrochloride]	261	1330	3570	–	–	–
CCN1CC2c3cccc(OC)c3CCC2C1Cc1cccc(F)c1 (stereo not drawn) [Example 25, cis-2-Ethyl-3-(3-fluorophenyl)methyl-2,3,3a,4,5,9b-hexahydro-6-methoxy-1H-benz[e]isoindole hydrochloride]	27	197	1900	–	–	–
CN1CC2c3ccccc3CCC2C1Cc1ccc(F)cc1 (stereo not drawn) [Example 18, cis-3-(4-Fluorophenyl)methyl-2,3,3a,4,5,9b-hexahydro-2-methyl-1H-benz[e]isoindole methanesulfonic acid salt]	241	4820	2910	–	–	–
CN1CC2c3ccc4c(c3CCC2C1Cc1cccc(F)c1)OCO4 (stereo not drawn) [Example 36, trans-3-(3-Fluorophenyl)methyl-2,3,3a,4,5,9b-hexahydro-2-methyl-6,7-methylenedioxy-1H-benz[e]isoindole methanesulfonic acid salt]	62	952	964	–	–	–
CN1CC2c3ccccc3CCC2C1Cc1ccccc1 (stereo not drawn) [Example 10, trans-2,3,3a,4,5,9b-Hexahydro-2-methyl-3-phenylmethyl-1H-benz[e]isoindole methanesulfonic acid salt]	454	6720	13500	–	–	–
COc1cccc2c1CCC1C2CN(C)C1Cc1cccc(F)c1 (stereo not drawn) [Example 24, cis-3-(3-Fluorophenyl)methyl-2,3,3a,4,5,9b-hexahydro-6-methoxy-2-methyl-1H-benz[e]isoindole hydrochloride]	104	170	2470	–	–	–
COc1ccc2c(c1OC)CCC1C(Cc3ccccc3)NCC21 (stereo not drawn) [Example 31, hydrochloride]	592	5420	14000	–	–	–
CN1CC2c3ccccc3CCC2C1Cc1ccccc1 (stereo not drawn) [Example 9, cis-2,3,3a,4,5,9b-Hexahydro-2-methyl-3-phenylmethyl-1H-benz[e]isoindole methanesulfonic acid salt]	48	540	6600	–	–	–
